Results from patent US20240158446A1, “CYCLIC COMPOUND HAVING SELECTIVE INHIBITORY ACTION ON KRAS OVER HRAS AND NRAS” (CHUGAI SEIYAKU KABUSHIKI KAISHA, priority 2021, published 2024).
Where two headings read alike, the source gives them in different places. Where a SMILES comes first, the peptide text is derived from it. Bridges are numbered along the chain shown (N, C = ends). [ ]: non-standard residue; d: D form. The star is where a group is joined. hPhe(3,5-F2-4-CF3) = N[C@@H](CCc1cc(F)c(C(F)(F)F)c(F)c1)C(=O)O; hPhe(3-Cl-4-CF3) = N[C@@H](CCc1ccc(C(F)(F)F)c(Cl)c1)C(=O)O; NPrPhe(4-CF3) = CCCN[C@@H](Cc1ccc(C(F)(F)F)cc1)C(=O)O; NMeGly(cPent) = CN[C@H](C(=O)O)C1CCCC1; Pro(4,4-F2) = O=C(O)[C@@H]1CC(F)(F)CN1; Nva(3-Et) = CCC(CC)[C@H](N)C(=O)O; Hyp = O=C(O)[C@@H]1C[C@@H](O)CN1; NMeD = CN[C@@H](CC(=O)O)C(=O)O; NMeL = CN[C@@H](CC(C)C)C(=O)O; Morpholide = C1CN(*)CCO1; NMeA = CN[C@@H](C)C(=O)O; Ac5c = NC1(C(=O)O)CCCC1; Aze = O=C(O)[C@@H]1CCN1; Ac4c = NC1(C(=O)O)CCC1; Sar = CNCC(=O)O

Key:
[1] = molecular target: GDP-bound KRAS wild-type protein (Homo sapiens, UniProt P01116); test: Binding to KRAS by surface plasmon resonance (SPR), Single Cycle Kinetics; conditions: GDP-bound KRAS wild-type protein, read-out: KRAS KD
[2] = molecular target: GDP-bound HRAS wild-type protein (Homo sapiens, UniProt P01112); test: Binding to HRAS by surface plasmon resonance (SPR), Single Cycle Kinetics; conditions: SPR, GDP-bound HRAS wild-type protein vs GDP-bound KRAS wild-type protein
[3] = molecular target: GDP-bound NRAS wild-type protein (Homo sapiens, UniProt P01111); test: Binding to NRAS by surface plasmon resonance (SPR), Single Cycle Kinetics; conditions: SPR, GDP-bound NRAS wild-type protein vs GDP-bound KRAS wild-type protein
[4] = SPR, Single Cycle Kinetics, 1:1 binding model
[5] = SPR Single Cycle Kinetics, 1:1 binding model

GDP-bound HRAS wild-type protein, sequence (P01112 whole entry): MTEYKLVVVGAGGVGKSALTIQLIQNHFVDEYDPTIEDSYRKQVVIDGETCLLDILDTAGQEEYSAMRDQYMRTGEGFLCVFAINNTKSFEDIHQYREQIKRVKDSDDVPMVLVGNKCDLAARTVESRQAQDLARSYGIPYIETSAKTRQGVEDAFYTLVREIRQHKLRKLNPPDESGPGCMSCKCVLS
GDP-bound KRAS wild-type protein, sequence (P01116 whole entry): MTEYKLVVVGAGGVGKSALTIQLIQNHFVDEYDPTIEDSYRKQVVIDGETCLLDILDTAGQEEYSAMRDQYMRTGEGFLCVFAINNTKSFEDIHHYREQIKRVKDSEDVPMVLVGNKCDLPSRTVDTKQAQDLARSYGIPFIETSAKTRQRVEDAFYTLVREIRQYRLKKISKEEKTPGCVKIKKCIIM
GDP-bound NRAS wild-type protein, sequence (P01111 whole entry): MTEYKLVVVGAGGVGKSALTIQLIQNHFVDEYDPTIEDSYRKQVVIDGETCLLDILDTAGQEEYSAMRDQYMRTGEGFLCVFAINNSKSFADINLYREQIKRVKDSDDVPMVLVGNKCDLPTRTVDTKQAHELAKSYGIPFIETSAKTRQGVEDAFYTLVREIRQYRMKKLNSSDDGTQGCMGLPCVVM

Row | SMILES | Kd ([1]; SPR, Single Cycle Kinetics) [nM] | HRAS/KRAS (ratio of KD value for HRAS to KD value for KRAS) [2] | NRAS/KRAS (ratio of KD value for NRAS to KD value for KRAS) [3] | Kd [1, 5] [nM] | also measured
1 | CCCN(C)C(=O)[C@@H]1CC(=O)N(C)[C@@H](C2CCC2)C(=O)N[C@@H]([C@@H](C)CC)C(=O)N(C)CC(=O)N(C)[C@H]2C/C=C\CCN(C2=O)[C@@H](Cc2ccc(C(F)(F)F)cc2)C(=O)N(C)CC(=O)N[C@@H](CCc2ccc(C(F)(F)F)c(OC)c2)C(=O)N2C[C@@H](C)C[C@H]2C(=O)NC2(CCC2)C(=O)N(C)[C@@H](C2CCCC2)C(=O)N1C [PP2072] | 0.12 | A (a compound having 10 or more and less than 20 is denoted as A) | A (a compound having 10 or more and less than 20 is denoted as A) | – | –
2 | CCO[C@@H]1C[C@H]2C(=O)NC3(CCC3)C(=O)N(C)[C@@H](C3CCCC3)C(=O)N(C)[C@H](C(=O)N(C)C)CC(=O)N(C)[C@@H](CC(C)C)C(=O)N[C@@H]([C@@H](C)CC)C(=O)N(C)CC(=O)N(C)[C@H]3C/C=C\CCN(C3=O)[C@@H](Cc3ccc(F)cc3)C(=O)N(C)CC(=O)N[C@@H](CCc3cc(F)c(C(F)(F)F)c(F)c3)C(=O)N2C1 [PP1488, (2S,8S,12R,14S,20S,23S,27S,30S,36S,38Z)-20-cyclopentyl-8-[2-[3,5-difluoro-4-(trifluoromethyl)phenyl]ethyl]-12-ethoxy-2-[(4-fluorophenyl)methyl]-27-isobutyl-N,N,4,19,22,26,32,35-octamethyl-30-[(1S)-1-methylpropyl]-3,6,9,15,18,21,25,28,31,34,42-undecaoxo-spiro[1,4,7,10,16,19,22,26,29,32,35-undecazatricyclo[34.5.1.0^10,14]dotetracont-38-ene-17,1′-cyclobutane]-23-carboxamide] | – | – | – | – | Kd [1, 4]: 0.081 nM; HRAS/KRAS (ratio of KD value for HRAS to KD value for KRAS) ([2]; KD ratio class): B (a compound having 3 or more and less than 10 is denoted as B); NRAS/KRAS (ratio of KD value for NRAS to KD value for KRAS) ([3]; KD ratio class): A (a compound having 10 or more and less than 20 is denoted as A)
3 | CCO[C@@H]1C[C@H]2C(=O)NC3(CCC3)C(=O)N(C)[C@@H](C3CCCC3)C(=O)N(C)[C@H](C(=O)N(C)CC)CC(=O)N(C)[C@@H](CC(F)F)C(=O)N[C@@H]([C@@H](C)CC)C(=O)N(C)CC(=O)N(C)[C@H]3C/C=C\CCN(C3=O)[C@@H](Cc3ccc(C(F)(F)F)cc3)C(=O)N(C)CC(=O)N[C@@H](CCc3cc(F)c(C(F)(F)F)c(F)c3)C(=O)N2C1 [PP1303] | – | – | – | – | Kd [1, 4]: 0.068 nM; HRAS/KRAS (ratio of KD value for HRAS to KD value for KRAS) ([2]; KD ratio class): A (a compound having 10 or more and less than 20 is denoted as A); NRAS/KRAS (ratio of KD value for NRAS to KD value for KRAS) ([3]; KD ratio class): AA (a compound having 20 or more is denoted as AA)
4 | CCO[C@@H]1C[C@H]2C(=O)NC3(CC(C)(C)C3)C(=O)N(C)[C@@H](C(CC)CC)C(=O)N(C)[C@H](C(=O)N(C)C)CC(=O)N(C)[C@@H](CC(C)C)C(=O)N[C@@H]([C@@H](C)CC)C(=O)N(C)CC(=O)N(C)[C@H]3C/C=C\CCN(C3=O)[C@@H](Cc3ccc(C)cc3)C(=O)N(C)CC(=O)N[C@@H](CCc3ccc(C(F)(F)F)c(OC)c3)C(=O)N2C1 [PP2168] | 0.33 | A (a compound having 10 or more and less than 20 is denoted as A) | A (a compound having 10 or more and less than 20 is denoted as A) | – | –
5 | CCO[C@@H]1C[C@H]2C(=O)NC3(CCC3)C(=O)N(C)[C@@H](C3CCCC3)C(=O)N(C)[C@H](C(=O)N(C)C)CC(=O)N(C)[C@@H](CC)C(=O)N[C@@H]([C@@H](C)CC)C(=O)N(C)CC(=O)N(C)[C@H]3CCCCCN(C3=O)[C@@H](Cc3ccc(F)cc3OC)C(=O)N(C)CC(=O)N[C@@H](CCc3cc(F)c(C(F)(F)F)c(F)c3)C(=O)N2C1 [PP0914] | 0.43 | B (a compound having 3 or more and less than 10 is denoted as B) | B (a compound having 3 or more and less than 10 is denoted as B) | – | –
6 | CCO[C@@H]1C[C@H]2C(=O)NC3(CCC3)C(=O)N(C)[C@@H](C3CCCC3)C(=O)N(C)[C@H](C(=O)N(C)C)CC(=O)N(C)[C@@H](CC(C)C)C(=O)N[C@@H]([C@@H](C)CC)C(=O)N(C)CC(=O)N(C)[C@H]3CCCCN(C3=O)[C@@H](Cc3ccc(C(F)(F)F)cc3)C(=O)N(C)CC(=O)N[C@@H](CCc3cc(F)c(C(F)(F)F)c(F)c3)C(=O)N2C1 [PP0580] | – | – | – | 0.015 | HRAS/KRAS (ratio of KD value with respect to HRAS to KD value with respect to KRAS) [2]: C (A compound having a KD ratio of 0.1 or more and less than 3 is denoted as C); NRAS/KRAS (ratio of KD value with respect to NRAS to KD value with respect to KRAS) [3]: C (A compound having a KD ratio of 0.1 or more and less than 3 is denoted as C)
7 | CCCN1C(=O)[C@@H]2CCN2C(=O)CN(C)C(=O)[C@H]([C@@H](C)CC)NC(=O)[C@H](CC(C)C)N(C)C(=O)C[C@@H](C(=O)N(C)C)NC(=O)[C@H](C2CCCC2)N(C)C(=O)C2(CCC2)NC(=O)[C@@H]2CC(F)(F)CN2C(=O)[C@H](CCc2ccc(C(F)(F)F)c(Cl)c2)NC(=O)CN(C)C(=O)[C@@H]1Cc1ccc(C(F)(F)F)cc1 [PP0388] ([NMeL]I[Sar][Aze][NPrPhe(4-CF3)][Sar][hPhe(3-Cl-4-CF3)][Pro(4,4-F2)][Ac4c][NMeGly(cPent)]D-NMe2; lactam N-11) | – | B (a compound having 3 or more and less than 10 is denoted as B) | C (A compound having a KD ratio of 0.1 or more and less than 3 is denoted as C) | 0.78 | –
8 | CCCN1C(=O)CN(C)C(=O)CN(C)C(=O)[C@H](C(CC)CC)NC(=O)[C@H](CC(C)C)N(C)C(=O)C[C@@H](C(=O)N2CCOCC2)N(C)C(=O)[C@H](C2CCCC2)N(C)C(=O)C2(CCCC2)NC(=O)[C@@H]2CCCN2C(=O)[C@H](CCc2cc(F)c(C(F)(F)F)c(F)c2)NC(=O)CN(C)C(=O)[C@@H]1Cc1ccc(C(F)(F)F)cc1 [PP0768] ([NMeL][Nva(3-Et)][Sar][Sar][NPrPhe(4-CF3)][Sar][hPhe(3,5-F2-4-CF3)]P[Ac5c][NMeGly(cPent)][NMeD]-Morpholide; lactam N-11) | – | – | – | 0.97 | HRAS/KRAS (ratio of KD value with respect to HRAS to KD value with respect to KRAS) [2]: C (A compound having a KD ratio of 0.1 or more and less than 3 is denoted as C); NRAS/KRAS (ratio of KD value with respect to NRAS to KD value with respect to KRAS) [3]: B (a compound having 3 or more and less than 10 is denoted as B)
9 | CCO[C@@H]1C[C@H]2C(=O)NC3(CC(C)(C)C3)C(=O)N(C)[C@@H](C(CC)CC)C(=O)N(C)[C@H](C(=O)N3CCCC3)CC(=O)N(C)[C@@H](C)C(=O)N[C@@H]([C@@H](C)CC)C(=O)N(C)CC(=O)N(C)[C@H]3C/C=C\CCN(C3=O)[C@@H](Cc3ccc(C(F)(F)F)cc3)C(=O)N(C)CC(=O)N[C@@H](CCc3ccc(Cl)c(Cl)c3)C(=O)N2C1 [PP2178] | 0.49 | A (a compound having 10 or more and less than 20 is denoted as A) | AA (a compound having 20 or more is denoted as AA) | – | –
10 | CCCN1C(=O)[C@@H]2CCN2C(=O)[C@H](C)N(C)C(=O)[C@H]([C@@H](C)CC)NC(=O)[C@H](CC(C)C)N(C)C(=O)C[C@@H](C(=O)N(C)C)NC(=O)[C@H](C2CCCC2)N(C)C(=O)C2(CCC2)NC(=O)[C@@H]2CC(F)(F)CN2C(=O)[C@H](CCc2ccc(C(F)(F)F)c(Cl)c2)NC(=O)CN(C)C(=O)[C@@H]1Cc1ccc(C(F)(F)F)cc1 [PP0382] ([NMeL]I[NMeA][Aze][NPrPhe(4-CF3)][Sar][hPhe(3-Cl-4-CF3)][Pro(4,4-F2)][Ac4c][NMeGly(cPent)]D-NMe2; lactam N-11) | – | B (a compound having 3 or more and less than 10 is denoted as B) | C (A compound having a KD ratio of 0.1 or more and less than 3 is denoted as C) | 0.35 | –
11 | CCC[C@H]1C(=O)N[C@@H](C2CCCCC2)C(=O)N(C)CC(=O)N(C)[C@H]2C/C=C\CCN(C2=O)[C@@H](Cc2ccc(C(F)(F)F)cc2)C(=O)N(C)CC(=O)N[C@@H](CCc2ccc(C(F)(F)F)c(Cl)c2)C(=O)N2C[C@H](OCC)C[C@H]2C(=O)NC2(CC(C)(C)C2)C(=O)N(C)[C@@H](CC(C)(C)C)C(=O)N(C)[C@H](C(=O)N(C)C)CC(=O)N1C [PP3014] | 0.37 | A (a compound having 10 or more and less than 20 is denoted as A) | AA (a compound having 20 or more is denoted as AA) | – | –
12 | CCO[C@@H]1C[C@H]2C(=O)NC3(CCC3)C(=O)N(C)[C@@H](C3CCCC3)C(=O)N(C)[C@H](C(=O)N3CCOCC3)CC(=O)N(C)[C@@H](Cc3ccc(C)cc3)C(=O)N[C@@H]([C@@H](C)CC)C(=O)N(C)CC(=O)N(C)[C@H]3CCCCCN(C3=O)[C@@H](Cc3ccc(C(F)(F)F)cc3)C(=O)N(C)CC(=O)N[C@@H](CCc3cc(F)c(C(F)(F)F)c(F)c3)C(=O)N2C1 [PP0933] | 1.6 | B (a compound having 3 or more and less than 10 is denoted as B) | A (a compound having 10 or more and less than 20 is denoted as A) | – | –
13 | CCCN1C(=O)CN(C)C(=O)CN(C)C(=O)[C@H]([C@@H](C)CC)NC(=O)[C@H](CC(C)C)N(C)C(=O)C[C@@H](C(=O)N(C)C)NC(=O)[C@H](C2CCCC2)N(C)C(=O)C2(CCCC2)NC(=O)[C@@H]2C[C@@H](OCC)CN2C(=O)[C@H](CCc2ccc(C(F)(F)F)c(Cl)c2)NC(=O)CN(C)C(=O)[C@@H]1Cc1ccc(C(F)(F)F)cc1 [PP0359] ([NMeL]I[Sar][Sar][NPrPhe(4-CF3)][Sar][hPhe(3-Cl-4-CF3)][Hyp](Et)[Ac5c][NMeGly(cPent)]D-NMe2; lactam N-11) | – | B (a compound having 3 or more and less than 10 is denoted as B) | B (a compound having 3 or more and less than 10 is denoted as B) | 0.14 | –
